# Measured values reported in patent US10925852B2, “Talc-bound compositions and uses thereof” (THE TRUSTEES OF COLUMBIA UNIVERSITY IN THE CITY OF NEW YORK, priority 2015, dated 2021).
# Structures can show the parent of a compound that is named as a salt. Where two headings read alike, the source gives them in different places.
# Tests used:
# [1] = tested on: NCI-28H cells; experiment: Cytotoxicity assay (MTS) of NCI-28H cells: doxorubicin, cisplatin, paclitaxel, talc, talc bound to these drugs (Example 21); type: cell-based; conditions: 72 hrs
# Experimental: Compare survival rate between each formulation.
# 1. Set up 3 cytotoxicity plates for Day 2 experiment: trypsinize NCI-28H cells (T-75 flask, passage 12): • Remove old medium, wash cells with 7 ml DPBS, remove DPBS, add 2 ml trypsin, incubate plates for 1-2′, when cells detached add 6 ml fresh medium, mix cells and medium. • Count cells under the microscope using the glass slide. […] If we need 200 wells, in each well will be 5,000 cells in 0.1 ml; so total we need 1,000,000 cells in 20 ml. […] In 50 ml Falcon tube, combine 16.6 ml fresh medium and 3.4 ml cells. Gently mix.
# 3. […] Final solution is 500 μL of 20 μM.
# 1. […] Take out supernatant.
# 6. Check the plate and start incubation at 37° C./5% CO2
# 3. Wash cells 1×300 μL media, remove final wash.
# [2] = tested on: NCI-28H cells; conditions: 72 hrs
# [3] = tested on: NCI-28H cells
structure (smiles),measurement,setting,value
"COc1cccc2c1C(=O)c1c(O)c3c(c(O)c1C2=O)C[C@@](O)(C(=O)CO)C[C@@H]3O[C@H]1C[C@H](N)[C@H](O)[C@H](C)O1 [DOX, Doxorubicin Hydrochloride]",AVERAGE: cells + DOX (absorbance 490 nm),[1]; DOX 0.2 μM,0.89
same,AVERAGE: cells + DOX (absorbance 490 nm),[1]; DOX 1 μM,0.67
same,AVERAGE: cells + DOX (absorbance 490 nm),[1]; DOX 5 μM,0.63
"Cc1c(N)nc([C@H](CC(N)=O)NCC(N)C(N)=O)nc1C(=O)N[C@H](C(=O)N[C@H](C)[C@@H](O)[C@H](C)C(=O)N[C@H](C(=O)NCCc1nc(-c2nc(C(=O)NCCC[S+](C)C)cs2)cs1)[C@@H](C)O)C(O[C@@H]1OC(CO)[C@@H](O)C(O)C1O[C@H]1OC(CO)[C@@H](O)C(OC(N)=O)C1O)c1c[nH]cn1 (some centres unmarked) [bleomycin, Bleomycin sulfate]",% survival NCI-28H cells after treatment with BLEOMYCIN,[2]; Bleomycin 0.004 ug/ml,92.41%
same,% survival NCI-28H cells after treatment with BLEOMYCIN,[2]; Bleomycin 0.015 ug/ml,88.25%
same,% survival NCI-28H cells after treatment with BLEOMYCIN,[2]; Bleomycin 0.06 ug/ml,93.38%
same,% survival NCI-28H cells after treatment with BLEOMYCIN,[2]; Bleomycin 0.24 ug/ml,91.86%
same,% survival NCI-28H cells after treatment with BLEOMYCIN,[2]; Bleomycin 0.97 ug/ml,86.19%
same,% survival NCI-28H cells after treatment with BLEOMYCIN,[2]; Bleomycin 3.9 ug/ml,71.05%
same,% survival NCI-28H cells after treatment with BLEOMYCIN,[2]; Bleomycin 15.6 ug/ml,74.60%
same,% survival NCI-28H cells after treatment with BLEOMYCIN,[2]; Bleomycin 62.5 ug/ml,68.76%
same,% survival NCI-28H cells after treatment with BLEOMYCIN,[2]; Bleomycin 250 ug/ml,47.13%
same,% survival NCI-28H cells after treatment with BLEOMYCIN,[2]; Bleomycin 1000 ug/ml,24.92%
"N.N.[Cl][Pt][Cl] [cisplatin, Cisplatin]",Average reading: cells + cisplatin (absorbance 490 nm),[1]; Cisplatin 0.0013 μM,1.37
same,Average reading: cells + cisplatin (absorbance 490 nm),[1]; Cisplatin 0.0064 μM,1.19
same,Average reading: cells + cisplatin (absorbance 490 nm),[1]; Cisplatin 0.8 μM,1.23
same,Average reading: cells + cisplatin (absorbance 490 nm),[1]; Cisplatin 4 μM,1.18
same,Average reading: cells + cisplatin (absorbance 490 nm),[1]; Cisplatin 20 μM,0.48
same,Average reading: cells + cisplatin (absorbance 490 nm),[1]; Cisplatin 100 μM,0.59
"Nc1ccn([C@@H]2O[C@H](CO)[C@@H](O)C2(F)F)c(=O)n1 [gemcitabine, Gemcitabine]",cytotoxic effect on NCI-28H cells (in words),[3],clear cytotoxic effect
